Measured values taken from US20100292266A1, “Oxazolyl Piperidine Modulators of Fatty Acid Amide Hydrolase” (priority 2006, published 2010).

Experiments:
[1] = biological target: T1, Rat FAAH (Rattus norvegicus, UniProt P97612); experiment: Assay Method 2: FAAH assay, 3H-anandamide hydrolysis in cell homogenate; type: biochemical; conditions: transfected SK-N-MC cell homogenate, 80 nM 3H-AEA, 1 h rt, > = solubility limit or highest concentration tested
T1 construct: expressed in transfected cells
T1 sequence (P97612 1-579): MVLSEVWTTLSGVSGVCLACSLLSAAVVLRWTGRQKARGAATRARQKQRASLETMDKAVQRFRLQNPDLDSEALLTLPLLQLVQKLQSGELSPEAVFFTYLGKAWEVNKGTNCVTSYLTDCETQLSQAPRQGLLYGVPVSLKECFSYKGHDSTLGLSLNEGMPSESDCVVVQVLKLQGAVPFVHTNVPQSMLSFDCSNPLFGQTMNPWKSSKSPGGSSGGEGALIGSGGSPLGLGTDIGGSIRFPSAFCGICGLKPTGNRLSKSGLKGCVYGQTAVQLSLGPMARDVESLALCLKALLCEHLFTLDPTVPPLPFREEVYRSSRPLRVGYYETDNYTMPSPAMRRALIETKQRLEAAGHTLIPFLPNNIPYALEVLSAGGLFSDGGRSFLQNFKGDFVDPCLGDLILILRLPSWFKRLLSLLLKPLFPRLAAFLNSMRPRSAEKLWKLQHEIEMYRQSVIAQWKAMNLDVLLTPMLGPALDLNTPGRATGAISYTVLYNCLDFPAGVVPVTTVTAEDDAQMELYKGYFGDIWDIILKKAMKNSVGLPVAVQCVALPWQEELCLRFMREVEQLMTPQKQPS
Method: A. Transfection of Cells with Rat FAAH
(§1) A 10-cm tissue culture dish with a confluent monolayer of SK-N-MC cells was split 2 days (d) prior to transfection. Using sterile technique, the media was removed and the cells were detached from the dish by the addition of trypsin. One fifth of the cells were then placed onto a new 10-cm dish. Cells were grown in a 37° C. incubator with 5% CO2 in Minimal Essential Media Eagle with 10% Fetal Bovine Serum. After 2 d, cells were approximately 80% confluent. These cells were removed from the dish with trypsin and pelleted in a clinical centrifuge. The pellet was re-suspended in 400 μL complete media and transferred to an electroporation cuvette with a 0.4 cm gap between the electrodes. Supercoiled rat FAAH cDNA (1 μg) was added to the cells and mixed. The voltage for the electroporation was set at 0.25 kV, and the capacitance was set at 960 μF. After electroporation, the cells were diluted into complete media (10 mL) and plated onto four 10-cm dishes. Because of the variability in the efficiency of electroporation, four different concentrations of cells were plated. The ratios used were 1:20, 1:10, and 1:5, with the remainder of the cells being added to the fourth dish. The cells were allowed to recover for 24 h before adding the selection media (complete media with 600 μg/mL G418). After 10 d, dishes were analyzed for surviving colonies of cells. Dishes with well-isolated colonies were used. Cells from individual colonies were isolated and tested.
(§2) The assay mixture consisted of 50 μL of the cell homogenate, 10 μL of the test compound, and 40 μL of anandamide [1-^3H-ethanolamine] (^3H-AEA, Perkin-Elmer, 10.3 Ci/mmol), which was added last, for a final tracer concentration of 80 nM. The reaction mixture was incubated at it for 1 h. During the incubation, 96-well Multiscreen filter plates (catalog number MAFCNOB50; Millipore, Bedford, Mass., USA) were loaded with 25 μL of activated charcoal (Multiscreen column loader, catalog number MACL09625, Millipore) and washed once with 100 μL of MeOH. Also during the incubation, 96-well DYNEX MicroLite plates (catalog number NL510410) were loaded with 100 μL of MicroScint40 (catalog number 6013641, Packard Bioscience, Meriden, Conn., USA). After the 1 h incubation, 60 μL of the reaction mixture were transferred to the charcoal plates, which were then assembled on top of the DYNEX plates using Centrifuge Alignment Frames (catalog number MACF09604, Millipore). The unbound labeled ethanolamine . was centrifuged through to the bottom plate (5 min at 2000 rpm), which was preloaded with the scintillant, as described above. The plates were sealed and left at rt for 1 h before counting on a Hewlett Packard TopCount.
(§3) Where activity is shown as greater than (>) a particular value, the value is the solubility limit of the compound in the assay medium or the highest concentration tested in the assay.

[2] = biological target: T2, FAAH (Homo sapiens, UniProt O00519); experiment: Assay Method 1: FAAH assay, 3H-anandamide hydrolysis in cell homogenate; type: biochemical; parameters: expressed in transfected cells; conditions: T84 or transfected SK-N-MC cell homogenate, 80 nM 3H-AEA, 1 h rt, > = solubility limit or highest concentration tested
T2 sequence (O00519 1-579): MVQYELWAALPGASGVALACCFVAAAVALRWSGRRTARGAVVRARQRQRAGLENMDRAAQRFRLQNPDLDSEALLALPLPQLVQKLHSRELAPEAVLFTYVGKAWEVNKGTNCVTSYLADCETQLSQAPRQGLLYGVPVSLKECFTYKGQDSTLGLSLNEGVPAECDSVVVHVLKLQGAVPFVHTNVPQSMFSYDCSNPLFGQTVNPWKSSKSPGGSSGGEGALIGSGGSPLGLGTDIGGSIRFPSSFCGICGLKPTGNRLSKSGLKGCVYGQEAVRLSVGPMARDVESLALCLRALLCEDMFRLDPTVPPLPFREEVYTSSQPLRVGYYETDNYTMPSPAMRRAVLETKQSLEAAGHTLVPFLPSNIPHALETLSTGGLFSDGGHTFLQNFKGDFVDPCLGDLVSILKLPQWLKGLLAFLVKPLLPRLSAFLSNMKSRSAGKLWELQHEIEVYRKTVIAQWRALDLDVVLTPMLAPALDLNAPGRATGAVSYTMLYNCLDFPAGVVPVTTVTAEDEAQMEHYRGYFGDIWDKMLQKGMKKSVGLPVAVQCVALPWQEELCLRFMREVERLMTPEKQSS
Method: A. Transfection of Cells with Human FAAH
as §1, with “Supercoiled human” for “Supercoiled rat”
as §2, with “at rt” for “at it”, “ethanolamine” for “ethanolamine .”
as §3

Structure (SMILES)	IC50 [1] [µM]	IC50 [2] [µM]
O=C(c1ncco1)C1CCN(S(=O)(=O)c2ccc3ccccc3c2)CC1 [Example 1, [1-(Naphthalene-2-sulfonyl)-piperidin-4-yl]-oxazol-2-yl-methanone]	1	0.1
COc1ccc(S(=O)(=O)N2CCC(C(=O)c3ncco3)CC2)cc1 [Example 2, [1-(4-Methoxy-benzenesulfonyl)-piperidin-4-yl]-oxazol-2-yl-methanone]	> 10	
COc1cccc(S(=O)(=O)N2CCC(C(=O)c3ncco3)CC2)c1 [Example 3, [1-(3-Methoxy-benzenesulfonyl)-piperidin-4-yl]-oxazol-2-yl-methanone]		8
O=C(c1ncco1)C1CCN(S(=O)(=O)c2ccc(Cl)cc2)CC1 [Example 4, [1-(4-Chloro-benzenesulfonyl)-piperidin-4-yl]-oxazol-2-yl-methanone]	8	1.2
O=C(c1ncco1)C1CCN(S(=O)(=O)c2cccc(Cl)c2)CC1 [Example 5, [1-(3-Chloro-benzenesulfonyl)-Diperidin-4-yl]-oxazol-2-yl-methanone]	8	8
O=C(c1ncco1)C1CCN(S(=O)(=O)c2ccccc2Cl)CC1 [Example 6, [1-(2-Chloro-benzenesulfonyl)-piperidin-4-yl]-oxazol-2-yl-methanone]		5
COc1cccc(C(=O)N2CCC(C(=O)c3ncco3)CC2)c1 [Example 7, [1-(3-Methoxy-benzoyl)-piperidin-4-yl]-oxazol-2-yl-methanone]	> 10	
COc1ccccc1C(=O)N1CCC(C(=O)c2ncco2)CC1 [Example 8, [1-(2-Methoxy-benzoyl)-piperidin-4-yl]-oxazol-2-yl-methanone]	> 10	> 10
COc1ccc(C(=O)N2CCC(C(=O)c3ncco3)CC2)cc1 [Example 9, [1-(4-Methoxy-benzoyl)-piperidin-4-yl]-oxazol-2-yl-methanone]	> 10	7
O=C(c1ncco1)C1CCN(C(=O)c2ccc3ccccc3c2)CC1 [Example 10, [1-(Naphthalene-2-carbonyl)-piperidin-4-yl]-oxazol-2-yl-methanone]	0.35	0.028
O=C(c1ncco1)C1CCN(C(=O)c2ccc(Cl)cc2)CC1 [Example 11, [1-(4-Chloro-benzoyl)-piperidin-4-yl]-oxazol-2-yl-methanone]	7.5	2.15
O=C(c1ncco1)C1CCN(C(=O)c2cccc(Cl)c2)CC1 [Example 12, [1-(3-Chloro-benzoyl)-piperidin-4-yl]-oxazol-2-yl-methanone]		9
O=C(c1ncco1)C1CCN(C(=O)c2ccccc2Cl)CC1 [Example 13, [1-(2-Chloro-benzoyl)-piperidin-4-yl]-oxazol-2-yl-methanone]	> 10	
O=C(c1ncco1)C1CCN(C(=O)CCc2ccccc2)CC1 [Example 14, 1-[4-(Oxazole-2-carbonyl)-piperidin-1-yl]-3-phenyl-propan-1-one]	9	1.6
CC(C)COc1ccc(CN2CCC(C(=O)c3ncco3)CC2)cc1 [Example 17, [1-(4-Isobutoxy-benzyl)-piperidin-4-yl]-oxazol-2-yl-methanone]		0.18
CN(C)c1ccc(CN2CCC(C(=O)c3ncco3)CC2)cc1 [Example 20, [1-(4-Dimethylamino-benzyl)-piperidin-4-yl]-oxazol-2-yl-methanone]		0.2
O=C(c1ncco1)C1CCN(Cc2ccc(OC3CCCCC3)cc2)CC1 [Example 21, [1-(4-Cyclohexyloxy-benzyl)-piperidin-4-yl]-oxazol-2-yl-methanone]		0.75
CC(C)Oc1cccc(CN2CCC(C(=O)c3ncco3)CC2)c1 [Example 24, [1-(3-Isopropoxy-benzyl)-piperidin-4-yl]-oxazol-2-yl-methanone]		0.118
CCOc1ccc(CN2CCC(C(=O)c3ncco3)CC2)cc1 [Example 28, [1-(4-Ethoxy-benzyl)-piperidin-4-yl]-oxazol-2-yl-methanone]		0.772
O=C(c1ncco1)C1CCN(Cc2ccncc2)CC1 [Example 58, Oxazol-2-yl-(1-pyridin-4-ylmethyl-piperidin-4-yl)-methanone]	> 10	
O=C(c1ncco1)C1CCN(Cc2cccnc2)CC1 [Example 59, Oxazol-2-yl-(1-pyridin-3-ylmethyl-piperidin-4-yl)-methanone]	> 10	
CC(c1ccccc1)N1CCC(C(=O)c2ncco2)CC1 (stereo not drawn) [Example 90, Oxazol-2-yl-[1-(1-phenyl-ethyl)-piperidin-4-yl]-methanone]	> 10	
